# Results published in patent publication US20180000089A1, “NOVEL MICROBIOCIDES” (Syngenta Participations AG, priority 2015, published 2018).
# Legend:
# [1] = tested on: Monographella nivalis (Microdochium nivale); test: Monographella nivalis (Microdochium nivale) / liquid culture (foot rot cereals); type: cell-based; conditions: PDB, 24° C., inhibition of growth determined photometrically 4-5 days after application, read-out: disease control
# Method: (§1) 14 Monographella nivalis (Microdochium nivale)/liquid culture (foot rot cereals): Conidia of the fungus from cryogenic storage were directly mixed into nutrient broth (PDB potato dextrose broth). After placing a DMSO solution of test compound into a 96-well microtiter plate at an application rate of 200 ppm, the nutrient broth containing the fungal spores was added. The test plates were incubated at 24° C. and the inhibition of growth was determined photometrically 4-5 days after application.
# [2] = tested on: Botryotinia fuckeliana (Botrytis cinerea); test: Botryotinia fuckeliana (Botrytis cinerea) / liquid culture (gray mould); type: cell-based; conditions: Vogels broth, 24° C., inhibition of growth determined photometrically 3-4 days after application, read-out: disease control
# Method: as §1, with “9 Botryotinia fuckeliana (Botrytis cinerea)/liquid” for “14 Monographella nivalis (Microdochium nivale)/liquid”, “(Gray mould):” for “(foot rot cereals):”, “(Vogels” for “(PDB potato dextrose”, “3-4” for “4-5”
# [3] = tested on: Mycosphaerella arachidis (Cercospora arachidicola); test: Mycosphaerella arachidis (Cercospora arachidicola) / liquid culture (early leaf spot); type: cell-based; conditions: PDB, 24° C., inhibition of growth determined photometrically 4-5 days after application, read-out: disease control
# Method: as §1, with “11 Mycosphaerella arachidis (Cercospora arachidicola)/Liquid Culture (Early Leaf Spot):” for “14 Monographella nivalis (Microdochium nivale)/liquid culture (foot rot cereals):”
# [4] = tested on: Sclerotinia sclerotiorum; test: Sclerotinia sclerotiorum / liquid culture (cottony rot); type: cell-based; conditions: PDB, 24° C., inhibition of growth determined visually 3-4 days after application, read-out: disease control
# Method: 17 Sclerotinia sclerotiorum/liquid culture (cottony rot): Mycelia fragments of a newly grown liquid culture of the fungus were directly mixed into nutrient broth (PDB potato dextrose broth). After placing a (DMSO) solution of the test compounds into a microtiter plate (96-well format) the nutrient broth containing the fungal material was added. The test plates were incubated at 24° C. and the inhibition of growth was determined visually 3-4 days after application.
# [5] = tested on: Plasmopara viticola; test: whole plant or invertebrate; type: in vivo; conditions: foliar, read-out: disease control
# [6] = tested on: Gaeumannomyces Graminis; test: Gaeumannomyces graminis / liquid culture (take-all of cereals); type: cell-based; conditions: PDB, 24° C., inhibition of growth determined photometrically 4-5 days after application, read-out: disease control
# Method: 13 Gaeumannomyces Graminis/Liquid Culture (Take-all of Cereals): Mycelial fragments of the fungus from cryogenic storage were directly mixed into nutrient broth (PDB potato dextrose broth). […] The test plates were incubated at 24° C. and the inhibition of growth was determined photometrically 4-5 days after application.
# [7] = tested on: Glomerella lagenarium (Colletotrichum Lagenarium); test: Glomerella lagenarium (Colletotrichum lagenarium) / liquid culture (anthracnose); type: cell-based; conditions: Colletotrichum orbiculare, PDB, 24° C., inhibition of growth measured photometrically 3-4 days after application, read-out: disease control
# Method: as §1, with “10 Glomerella lagenarium (Colletotrichum Lagenarium)/Liquid Culture (Anthracnose):” for “14 Monographella nivalis (Microdochium nivale)/liquid culture (foot rot cereals):”, “measured” for “determined”, “3-4” for “4-5”
# [8] = tested on: Pythium ultimum; test: Pythium ultimum / liquid culture (seedling damping off); type: cell-based; conditions: Globisporangium ultimum, potato dextrose broth, 24° C., inhibition of growth determined photometrically 2-3 days after application, read-out: disease control
# Method: 8 Pythium ultimum/Liquid Culture (Seedling Damping Off) Mycelia fragments and oospores of a newly grown liquid culture of the fungus were directly mixed into nutrient broth (potato dextrose broth). After placing a DMSO solution of test compound into a 96-well format microtiter plate at an application rate of 200 ppm, the nutrient broth containing the fungal mycelia/spore mixture was added. The test plates were incubated at 24° C. and the inhibition of growth was determined photometrically 2-3 days after application.
# [9] = tested on: Alternaria solani; test: Alternaria solani / tomato / leaf disc (early blight); type: in vivo; conditions: 200 ppm; tomato leaf disks cv. Baby, inoculated 2 days after application; assessed 5-7 days after application vs untreated
# Method: 6 Alternaria solani/Tomato/Leaf Disc (Early Blight) Tomato leaf disks cultivated variety (cv.) Baby were placed on agar in multiwell plates (24-well format) and sprayed with the formulated test compound diluted in water at an application rate of 200 ppm. The leaf disks were inoculated with a spore suspension of the fungus 2 days after application. The inoculated leaf disks were incubated at 23° C./21° C.
# [10] = tested on: Mycosphaerella graminicola (Septoria tritici); test: Mycosphaerella graminicola (Septoria tritici) / liquid culture (Septoria blotch); type: cell-based; conditions: Zymoseptoria tritici, PDB, 24° C., inhibition of growth determined photometrically 4-5 days after application, read-out: disease control
# Method: as §1, with “12 Mycosphaerella graminicola (Septoria tritici)/Liquid Culture (Septoria Blotch):” for “14 Monographella nivalis (Microdochium nivale)/liquid culture (foot rot cereals):”
# [11] = tested on: Thanatephorus cucumeris (Rhizoctonia solani); test: Thanatephorus cucumeris (Rhizoctonia solani) / liquid culture (foot rot, damping-off); type: cell-based; conditions: PDB, 24° C., inhibition of growth determined photometrically 3-4 days after application, read-out: disease control
# Method: 16 Thanatephorus cucumeris (Rhizoctonia solani)/liquid culture (foot rot, damping-off): Mycelia fragments of a newly grown liquid culture of the fungus were directly mixed into nutrient broth (PDB potato dextrose broth). After placing a DMSO solution of the test compounds into a 96-well microtiter plate at an application rate of 200 ppm, the nutrient broth containing the fungal material was added. The test plates were incubated at 24° C. and the inhibition of growth was determined photometrically 3-4 days after application.
# [12] = tested on: Fusarium culmorum; test: microbe, parasite or virus in culture; type: cell-based; conditions: read-out: disease control
# [13] = tested on: Magnaporthe grisea (Pyricularia oryzae); type: in vivo; conditions: 200 ppm; rice leaf segments cv. Ballila, inoculated 2 days after application; assessed 5-7 days after application vs untreated
# [14] = tested on: Pyrenophora teres; test: Pyrenophora teres / barley / leaf disc preventative (net blotch); type: in vivo; conditions: 200 ppm; barley leaf segments cv Hasso, inoculated two days after application; assessed 5-7 days after application vs untreated
# Method: 5 Pyrenophora teres/Barley/Leaf Disc Preventative (Net Blotch): Barley leaf segments cv Hasso were placed on agar in a 24-well plate and sprayed with formulated test compound diluted in water at an application rate of 200 ppm. The leaf segments were inoculated with a spore suspension of the fungus two days after application of the test solution. The inoculated leaf segments were incubated at 20° C. and 65% relative humidity under a light regime of 12/12 h (light/dark) in a climate cabinet and the activity of a compound was assessed as disease control compared to untreated when an appropriate level of disease damage appears in untreated check leaf segments (5-7 days after application).
SMILES,inhibition of growth at 200 ppm [1] [%],inhibition of growth at 200 ppm [2] [%],inhibition of growth at 200 ppm [3] [%],inhibition of growth at 200 ppm [4] [%],pest or weed control at 200 ppm [5] [%],inhibition of growth at 200 ppm [6] [%],inhibition of growth at 200 ppm [7] [%],inhibition of growth at 200 ppm [8] [%],disease control [9],melting point [°C],inhibition of growth at 200 ppm [10] [%],inhibition of growth at 200 ppm [11] [%],inhibition of growth at 200 ppm [12] [%],disease control [13],disease control [14]
"OB1OCc2ccc(-c3ccccc3)cc21 [Compound 1, 1-hydroxy-6-phenyl-3H-2,1-benzoxaborole]",≥ 80,≥ 80,≥ 80,≥ 80,≥ 80,≥ 80,≥ 80,≥ 80,at least 80%,140 to 150,≥ 80,,,,
"OB1OCc2cc(Cl)c(-c3ccccc3)cc21 [Compound 3, 5-chloro-1-hydroxy-6-phenyl-3H-2,1-benzoxaborole]",≥ 80,≥ 80,≥ 80,≥ 80,≥ 80,≥ 80,≥ 80,≥ 80,,135 to 145,≥ 80,≥ 80,≥ 80,,
"COc1ccccc1-c1cc2c(cc1Cl)COB2O [Compound 7, 5-chloro-1-hydroxy-6-(2-methoxyphenyl)-3H-2,1-benzoxaborole]",,,,,≥ 80,,≥ 80,≥ 80,,90 to 105,≥ 80,≥ 80,≥ 80,,
OB1OCc2cc(F)c(-c3ccccc3)cc21 [Compound 9],≥ 80,≥ 80,≥ 80,≥ 80,≥ 80,≥ 80,≥ 80,≥ 80,,142 to 152,≥ 80,,≥ 80,at least 80%,
OB1OCc2cc(F)c(-c3ccc(F)cc3)cc21 [Compound 10],≥ 80,≥ 80,≥ 80,≥ 80,≥ 80,≥ 80,≥ 80,≥ 80,,161 to 163,≥ 80,,≥ 80,,at least 80%
OB1OCc2cc(F)c(-c3ccc(Cl)cc3Cl)cc21 [Compound 28],,≥ 80,≥ 80,≥ 80,,≥ 80,,,,,≥ 80,≥ 80,,,
COc1ccc(Cl)cc1-c1cc2c(cc1Cl)COB2O [Compound 31],≥ 80,≥ 80,≥ 80,≥ 80,,,≥ 80,≥ 80,,,≥ 80,≥ 80,≥ 80,,
